# Experiments:
# Assay in all cases: relative viability (nuclei count vs DMSO), 5 days (fraction); higher = more cells survive
# Tosedostat + Alpelisib = compound: CC(C)C[C@@H](C(=O)N[C@H](C(=O)OC1CCCC1)c1ccccc1)[C@H](O)C(=O)NO [Tosedostat] + Cc1nc(NC(=O)N2CCC[C@H]2C(N)=O)sc1-c1ccnc(C(C)(C)C(F)(F)F)c1 [Alpelisib] (partner 2 µM)
# Method in brief: (§1)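 Lung cancer cell lines in 1536-well plates were dosed by pin tool the day after seeding, either with one drug alone or with a fixed anchor-drug dose plus five library-drug doses (not always all listed) in √10 steps. After 5 days, cells were fixed and their nuclei stained in one step (final 0.05% Triton X-100, 1% formaldehyde, 1 ug/ml Hoechst), then counted on 4× images. Relative viability is the nuclei count in treated wells divided by that in vehicle wells. Values are medians of duplicate plates.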
# [1] = compound: CC1=NN=C(O1)C2=NN=C(C=C2)N3CCC(CC3)OC4=C(C=CC(=C4)F)Cl + CC(=O)c1c(C)c2cnc(Nc3ccc(N4CCNCC4)cn3)nc2n(C2CCCC2)c1=O [Palbociclib] (partner 0.5 µM)
# Method in brief: as §1
# [2] = compound: CC1=NN=C(O1)C2=NN=C(C=C2)N3CCC(CC3)OC4=C(C=CC(=C4)F)Cl + CC(C)C[C@H](NC(=O)[C@H](Cc1ccccc1)NC(=O)c1cnccn1)B(O)O [Bortezomib] (partner 0.002 µM)
# Method in brief: as §1
# [3] = compound: CC1=NN=C(O1)C2=NN=C(C=C2)N3CCC(CC3)OC4=C(C=CC(=C4)F)Cl + NC(=O)Nc1cc(-c2cccc(F)c2)sc1C(=O)N[C@H]1CCCNC1 [AZD7762] (partner 0.2 µM)
# Method in brief: as §1
Cell Line,relative viability (Tosedostat + Alpelisib; first compound 0.02 µM),relative viability (Tosedostat + Alpelisib; first compound 0.06325 µM),relative viability (Tosedostat + Alpelisib; first compound 0.2 µM),relative viability (Tosedostat + Alpelisib; first compound 0.6325 µM),relative viability (Tosedostat + Alpelisib; first compound 2 µM),relative viability ([1]; first compound 0.253 µM),relative viability ([1]; first compound 0.8 µM),relative viability ([1]; first compound 2.53 µM),relative viability ([1]; first compound 8 µM),relative viability ([2]; first compound 0.253 µM),relative viability ([2]; first compound 0.8 µM),relative viability ([2]; first compound 2.53 µM),relative viability ([2]; first compound 8 µM),relative viability ([3]; first compound 0.253 µM),relative viability ([3]; first compound 0.8 µM),relative viability ([3]; first compound 2.53 µM),relative viability ([3]; first compound 8 µM)
NCI-H2228,0.971,0.748,0.743,0.677,0.661,0.675,0.394,0.681,0.538,0.725,0.804,1.27,0.772,–,–,–,–
NCI-H1944,0.929,0.811,0.817,0.742,0.818,0.238,0.278,0.249,0.246,–,–,–,–,0.368,0.348,0.561,0.441
NCI-H1793,0.691,0.851,0.567,0.649,0.673,0.304,0.314,0.342,0.301,–,–,–,–,0.411,0.482,0.756,0.407
A549,0.753,0.714,0.683,0.709,0.526,–,–,–,–,–,–,–,–,–,–,–,–
NCI-H661,0.736,0.627,0.428,0.594,0.531,0.354,0.38,0.355,0.302,0.695,0.539,0.801,0.669,–,–,–,–
NCI-H358,0.881,0.824,0.688,0.538,0.442,0.137,0.12,0.119,0.133,–,–,–,–,0.559,0.521,0.614,0.544
NCI-H1395,1.03,0.922,0.965,0.791,0.876,0.562,0.592,0.599,0.626,–,–,–,–,0.377,0.378,0.392,0.404
NCI-H1299,1.13,1.02,1.03,1.03,0.906,–,–,–,–,0.935,0.911,0.858,0.807,–,–,–,–
SW 900,–,–,–,–,–,–,0.574,0.504,0.463,–,–,–,–,–,0.563,0.596,0.66
IA-LM,0.735,0.845,0.714,0.656,0.617,–,–,–,–,0.17,0.137,0.132,0.186,–,–,–,–
NCI-H520,0.805,0.807,0.929,1.12,0.946,0.247,0.258,0.263,0.251,0.378,0.5,0.518,0.542,–,–,–,–
SK-LU-1,1.19,0.981,0.772,0.842,0.491,0.428,0.334,0.33,0.47,1.08,0.86,1.12,1.02,–,–,–,–
NCI-H1563,0.879,1,0.956,1.16,1.1,–,–,–,–,0.872,0.829,0.823,0.934,–,–,–,–
NCI-H1648,–,–,–,–,–,0.258,0.278,0.263,0.244,–,–,–,–,0.434,0.532,0.6,0.503
